# System: Acinetobacter calcoaceticus
# Assay: Antimicrobial activity against Acinetobacter calcoaceticus (GC 756)
# Type: functional
# Conditions: not given
row,SMILES,MIC [µg/mL]
1,C[C@H](N)C(=O)NC[C@H]1OCC[C@H]1SC1=C(C(=O)[O-])N2C(=O)[C@H]([C@@H](C)O)[C@H]2[C@H]1C.[Na+],16
2,C[C@H](N)C(=O)NCC1CC(SC2=C(C(=O)[O-])N3C(=O)[C@H]([C@@H](C)O)[C@H]3[C@H]2C)CO1.[Na+] (stereo not given in full),8

# System: not listed separately
# Assay: Antimicrobial activity against Citrobacter freundii (GC 2211)
# Type: functional
# Conditions: not given
row,SMILES,MIC [µg/mL]
1,C[C@H](N)C(=O)NC[C@H]1OCC[C@H]1SC1=C(C(=O)[O-])N2C(=O)[C@H]([C@@H](C)O)[C@H]2[C@H]1C.[Na+],1
2,C[C@H](N)C(=O)NCC1CC(SC2=C(C(=O)[O-])N3C(=O)[C@H]([C@@H](C)O)[C@H]3[C@H]2C)CO1.[Na+] (stereo not given in full),1

# Target: T1, Dipeptidase 1 (Sus scrofa) (UniProt P22412)
# T1 sequence (whole entry): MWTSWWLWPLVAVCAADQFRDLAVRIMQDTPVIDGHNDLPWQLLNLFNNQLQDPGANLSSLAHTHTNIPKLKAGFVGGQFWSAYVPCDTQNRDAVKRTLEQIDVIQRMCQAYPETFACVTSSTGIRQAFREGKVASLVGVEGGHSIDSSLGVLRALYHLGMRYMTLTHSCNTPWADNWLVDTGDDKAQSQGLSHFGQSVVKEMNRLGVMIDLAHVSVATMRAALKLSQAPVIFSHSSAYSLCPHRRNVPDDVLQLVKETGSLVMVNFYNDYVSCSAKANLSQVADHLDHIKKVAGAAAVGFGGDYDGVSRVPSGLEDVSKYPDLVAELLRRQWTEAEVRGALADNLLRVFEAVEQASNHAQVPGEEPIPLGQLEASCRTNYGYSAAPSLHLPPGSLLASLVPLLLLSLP
# Assay: Relative hydrolysis of compound to that of imipenem was determined by hog renal dehydropeptidase
# Type: functional
# Conditions: not given
row,SMILES,Relative hydrolysis
1,C[C@H](N)C(=O)NCC1CC(SC2=C(C(=O)[O-])N3C(=O)[C@H]([C@@H](C)O)[C@H]3[C@H]2C)CO1.[Na+] (stereo not given in full),10

# Target: T1, Dipeptidase 1 (Sus scrofa)
# Assay: Relative hydrolysis to that of imipenem was determined by hog renal dehydropeptidase
# Conditions: not given
row,SMILES,Relative hydrolysis
1,C[C@H](N)C(=O)NC[C@H]1OCC[C@H]1SC1=C(C(=O)[O-])N2C(=O)[C@H]([C@@H](C)O)[C@H]2[C@H]1C.[Na+],12

# System: not listed separately
# Assay: Antimicrobial activity against Enterococcus faecium (GC 1182)
# Type: functional
# Conditions: not given
row,SMILES,MIC [µg/mL]
1,C[C@H](N)C(=O)NC[C@H]1OCC[C@H]1SC1=C(C(=O)[O-])N2C(=O)[C@H]([C@@H](C)O)[C@H]2[C@H]1C.[Na+],> 128
2,C[C@H](N)C(=O)NCC1CC(SC2=C(C(=O)[O-])N3C(=O)[C@H]([C@@H](C)O)[C@H]3[C@H]2C)CO1.[Na+] (stereo not given in full),> 128

# System: not listed separately
# Assay: Antimicrobial activity against Enterobacter cloacae (GC 2209)
# Type: functional
# Conditions: not given
row,SMILES,MIC [µg/mL]
1,C[C@H](N)C(=O)NC[C@H]1OCC[C@H]1SC1=C(C(=O)[O-])N2C(=O)[C@H]([C@@H](C)O)[C@H]2[C@H]1C.[Na+],0.25
2,C[C@H](N)C(=O)NCC1CC(SC2=C(C(=O)[O-])N3C(=O)[C@H]([C@@H](C)O)[C@H]3[C@H]2C)CO1.[Na+] (stereo not given in full),0.25

# System: not listed separately
# Assay: Antimicrobial activity against Enterococcus faecalis (GC 842)
# Type: functional
# Conditions: not given
row,SMILES,MIC [µg/mL]
1,C[C@H](N)C(=O)NC[C@H]1OCC[C@H]1SC1=C(C(=O)[O-])N2C(=O)[C@H]([C@@H](C)O)[C@H]2[C@H]1C.[Na+],4
2,C[C@H](N)C(=O)NCC1CC(SC2=C(C(=O)[O-])N3C(=O)[C@H]([C@@H](C)O)[C@H]3[C@H]2C)CO1.[Na+] (stereo not given in full),4

# System: Escherichia coli
# Assay: Antimicrobial activity against Escherichia coli (ATCC 25922)
# Type: functional
# Conditions: not given
row,SMILES,MIC [µg/mL]
1,C[C@H](N)C(=O)NC[C@H]1OCC[C@H]1SC1=C(C(=O)[O-])N2C(=O)[C@H]([C@@H](C)O)[C@H]2[C@H]1C.[Na+],≤ 0.06
2,C[C@H](N)C(=O)NCC1CC(SC2=C(C(=O)[O-])N3C(=O)[C@H]([C@@H](C)O)[C@H]3[C@H]2C)CO1.[Na+] (stereo not given in full),≤ 0.06

# System: Escherichia coli
# Assay: Antimicrobial activity against Escherichia coli (GC 1792)
# Type: functional
# Conditions: not given
row,SMILES,MIC [µg/mL]
1,C[C@H](N)C(=O)NC[C@H]1OCC[C@H]1SC1=C(C(=O)[O-])N2C(=O)[C@H]([C@@H](C)O)[C@H]2[C@H]1C.[Na+],≤ 0.06
2,C[C@H](N)C(=O)NCC1CC(SC2=C(C(=O)[O-])N3C(=O)[C@H]([C@@H](C)O)[C@H]3[C@H]2C)CO1.[Na+] (stereo not given in full),≤ 0.06

# System: Escherichia coli
# Assay: Antimicrobial activity against Escherichia coli (GC 2205)
# Type: functional
# Conditions: not given
row,SMILES,MIC [µg/mL]
1,C[C@H](N)C(=O)NC[C@H]1OCC[C@H]1SC1=C(C(=O)[O-])N2C(=O)[C@H]([C@@H](C)O)[C@H]2[C@H]1C.[Na+],≤ 0.06
2,C[C@H](N)C(=O)NCC1CC(SC2=C(C(=O)[O-])N3C(=O)[C@H]([C@@H](C)O)[C@H]3[C@H]2C)CO1.[Na+] (stereo not given in full),≤ 0.06

# System: not listed separately
# Assay: Antimicrobial activity against Morganella morganii (GC 2213)
# Type: functional
# Conditions: not given
row,SMILES,MIC [µg/mL]
1,C[C@H](N)C(=O)NC[C@H]1OCC[C@H]1SC1=C(C(=O)[O-])N2C(=O)[C@H]([C@@H](C)O)[C@H]2[C@H]1C.[Na+],1
2,C[C@H](N)C(=O)NCC1CC(SC2=C(C(=O)[O-])N3C(=O)[C@H]([C@@H](C)O)[C@H]3[C@H]2C)CO1.[Na+] (stereo not given in full),1

# System: Pseudomonas aeruginosa
# Assay: Antimicrobial activity against Pseudomonas aeruginosa (ATCC 27853)
# Type: functional
# Conditions: not given
row,SMILES,MIC [µg/mL]
1,C[C@H](N)C(=O)NC[C@H]1OCC[C@H]1SC1=C(C(=O)[O-])N2C(=O)[C@H]([C@@H](C)O)[C@H]2[C@H]1C.[Na+],32
2,C[C@H](N)C(=O)NCC1CC(SC2=C(C(=O)[O-])N3C(=O)[C@H]([C@@H](C)O)[C@H]3[C@H]2C)CO1.[Na+] (stereo not given in full),32

# System: Pseudomonas aeruginosa
# Assay: Antimicrobial activity against Pseudomonas aeruginosa (GC 1544 OprD)
# Type: functional
# Conditions: not given
row,SMILES,MIC [µg/mL]
1,C[C@H](N)C(=O)NC[C@H]1OCC[C@H]1SC1=C(C(=O)[O-])N2C(=O)[C@H]([C@@H](C)O)[C@H]2[C@H]1C.[Na+],64
2,C[C@H](N)C(=O)NCC1CC(SC2=C(C(=O)[O-])N3C(=O)[C@H]([C@@H](C)O)[C@H]3[C@H]2C)CO1.[Na+] (stereo not given in full),64

# System: Staphylococcus aureus
# Assay: Antimicrobial activity against Staphylococcus aureus (ATCC 29213)
# Type: functional
# Conditions: not given
row,SMILES,MIC [µg/mL]
1,C[C@H](N)C(=O)NC[C@H]1OCC[C@H]1SC1=C(C(=O)[O-])N2C(=O)[C@H]([C@@H](C)O)[C@H]2[C@H]1C.[Na+],0.12
2,C[C@H](N)C(=O)NCC1CC(SC2=C(C(=O)[O-])N3C(=O)[C@H]([C@@H](C)O)[C@H]3[C@H]2C)CO1.[Na+] (stereo not given in full),0.12

# System: Staphylococcus aureus
# Assay: Antimicrobial activity against methicillin - resistant Staphylococcus aureus (GC 2220)
# Type: functional
# Conditions: not given
row,SMILES,MIC [µg/mL]
1,C[C@H](N)C(=O)NC[C@H]1OCC[C@H]1SC1=C(C(=O)[O-])N2C(=O)[C@H]([C@@H](C)O)[C@H]2[C@H]1C.[Na+],8
2,C[C@H](N)C(=O)NCC1CC(SC2=C(C(=O)[O-])N3C(=O)[C@H]([C@@H](C)O)[C@H]3[C@H]2C)CO1.[Na+] (stereo not given in full),8

# System: not listed separately
# Assay: Antimicrobial activity against Xanthomonas maltophilia (GC 562)
# Type: functional
# Conditions: Stenotrophomonas maltophilia
row,SMILES,MIC [µg/mL]
1,C[C@H](N)C(=O)NC[C@H]1OCC[C@H]1SC1=C(C(=O)[O-])N2C(=O)[C@H]([C@@H](C)O)[C@H]2[C@H]1C.[Na+],> 128
2,C[C@H](N)C(=O)NCC1CC(SC2=C(C(=O)[O-])N3C(=O)[C@H]([C@@H](C)O)[C@H]3[C@H]2C)CO1.[Na+] (stereo not given in full),> 128

# Reference: ChEMBL document CHEMBL1150515, “Synthesis and structure-activity relationships of novel THF 1-methylcarbapenems II” (1997)
